Measurements published in patent US10138242B2, “Pyrazolopyridine derivatives and their use in therapy” (HELMHOLTZ ZENTRUM MUENCHEN—DEUTSCHES FORSCHUNGSZENTRUM FUER …, priority 2015, dated 2018).

Key:
[1] = system: PEX5-PEX14 complex (biotin-coupled PEX5 peptide, His-tagged T. brucei PEX14); experiment: biochemical; format: binding; conditions: 30 nM PEX5, 30 nM PEX14; quadruplicate; read-out: AlphaScreen EC50 [μM] (±SD)
Text: (§1) The assay uses two types of beads: donor beads are coupled with streptavidin, and acceptor beads are coupled with an anti His-tag antibody. Upon excitation with light of a wavelength of 680 nm the donor beads produce reactive oxygen species that travel in solution only for a limited distance. If the acceptor beads are within that travel distance, it will absorb the reactive oxygen and emit light in the range of 520-620 nm. […] Thus, PEX5-PEX14 complex dissociation by a ligand caused decrease in light emission as the donor and acceptor beads were separated. Typically, we used 30 nM PEX5, 30 nM PEX14 and bead concentrations of 5 μg/mL. The PEX5-PEX14 complex was incubated with varying concentrations of inhibitor for 1 hour. Next, the beads were added and the system allowed to equilibrate for another hour. The raw data were fitted to four parameter sigmoidal curves by Origin software and EC50 values calculated. Each measurement was performed in quadruplicate and every experiment was accompanied with blank and reference samples (using non-biotynylated PEX5 peptide as a binding competitor).

[2] = system: T. brucei brucei bloodstream form parasites (strain Lister 427); experiment: Antitrypanosomal activity assay (resazurin; FIG. 2); format: cell-based; conditions: Trypanosoma brucei; 66 h + 6 h resazurin
Procedure: (A) The trypanosoma cell count and growth were evaluated at different doses of compounds of the invention.
Antitrypanosomal activity was tested on T. brucei brucei bloodstream from parasites (strain—Lister 427, VATMITat 1.2). Stock solutions of compounds (50 mM) were prepared in DMSO. Two fold serial dilutions of each compound (10 wells in each row) were prepared in 96 well plates in HMI111 medium (100 μl/well; quadruplicates; cf. also Hirumi et al., J. Parasitol. 75 (1989), 985-989). One well without compound, and one well with media alone were included in each row. […] The plates were incubated for 66 hours at 37° C. in the incubator with 5% CO2. 20 μl resazurin (Sigma, 0.125 mg/ml in Hanks Balanced Salt Solution) was added to all wells and the plate was further incubated for 6 hours. Change in color of resazurin (blue to pink) by living cells was measured with a 96 well plate reader (excitation at 530 nm, emission at 585 nm, filter cut-off: 570 nm). Percent inhibition values were calculated by setting the well without compound to “0% inhibition”.

[3] = target: PEX5-PEX14 complex (biotin-coupled PEX5 peptide, His-tagged T. brucei PEX14) (Trypanosoma brucei brucei, UniProt Q38CL4); experiment: biochemical; format: binding; conditions: 30 nM PEX5, 30 nM PEX14; quadruplicate; read-out: AlphaScreen EC50 [μM] (±SD)
Sequence of PEX5-PEX14 complex (biotin-coupled PEX5 peptide, His-tagged T. brucei PEX14) (Trypanosoma brucei brucei, UniProt Q38CL4) (Q38CL4 1-366, one chain of several): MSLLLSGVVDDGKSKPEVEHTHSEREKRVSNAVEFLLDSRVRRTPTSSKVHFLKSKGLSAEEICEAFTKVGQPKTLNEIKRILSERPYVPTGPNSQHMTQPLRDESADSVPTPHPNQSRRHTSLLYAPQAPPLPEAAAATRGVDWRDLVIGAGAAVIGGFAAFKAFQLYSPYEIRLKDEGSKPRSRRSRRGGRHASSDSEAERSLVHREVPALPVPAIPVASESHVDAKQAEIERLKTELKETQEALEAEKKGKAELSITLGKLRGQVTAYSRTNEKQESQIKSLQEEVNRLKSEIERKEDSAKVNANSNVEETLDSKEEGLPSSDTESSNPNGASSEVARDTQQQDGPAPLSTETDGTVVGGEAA
Text: as §1

Row | SMILES | EC50 [1] [µM] | IC50 [2] [µM] | EC50 [3] [µM]
1 | COc1ccc2c(OC)ccc(CN3CCc4c(c(C(=O)NCc5cccc6ccccc56)nn4CCO)C3)c2c1 [Compound 111] | 52.9 |  | 
2 | COc1ccc2cc(CN3CCc4c(c(C(=O)NCc5cccc6ccccc56)nn4CCO)C3)ccc2c1 [Compound 114] |  | 3.9 | 121
3 | NC(=O)Cn1nc(C(=O)NCc2ccccc2)c2c1CCN(Cc1c[nH]c3ccccc13)C2 [Compound 4] |  | 51 | 1380
4 | O=C(NCc1cccc2ccccc12)c1nn(CCO)c2c1CN(Cc1cccc(-c3ccccc3)c1)CC2 [Compound 39] |  | 5.5 | 12.7
5 | COc1ccc(CN2CCc3nn(CCO)c(C(=O)NCc4cccc5ccccc45)c3C2)c2ccccc12 [Compound 90] |  | 3.3 | 66.1
6 | COc1ccc(CN2CCc3c(c(C(=O)NCc4cccc5ccccc45)nn3CCNC(=N)N)C2)c2ccccc12 [Compound 94] |  | 0.74 | 1.4
7 | COc1ccc(CN2CCc3c(c(C(=O)NCc4cccc5ccccc45)nn3-c3cnccn3)C2)c2ccccc12 [Compound 14] |  | 3.61 | 11.9
8 | O=C(NCc1ccccc1)c1nn(-c2ccccc2)c2c1CN(Cc1c[nH]c3ccccc13)CC2 [Compound 6] |  | 8 | 18.3
9 | O=C(NCc1cccc2ccccc12)c1nn(CCO)c2c1CN(Cc1cccc3cccnc13)CC2 [Compound 45] |  | 10.7 | 53.8
10 | COc1ccc2[nH]c(CN3CCc4c(c(C(=O)NCc5cccc6ccccc56)nn4CCO)C3)cc2c1 [Compound 110] |  | 2.6 | 43.8
11 | NCCn1nc(C(=O)NCc2cccc3ccccc23)c2c1CCN(Cc1ccc(Cl)c(Cl)c1)C2 [Compound 105] |  | 0.34 | 11.6
12 | COc1ccc(CN2CCc3c(c(C(=O)NCc4cccc5cccnc45)nn3CCO)C2)c2ccccc12 [Compound 61] |  | 7 | 24.1
13 | O=C(NCc1cccc2ccccc12)c1nn(CCO)c2c1CN(Cc1ccc(-c3ccccc3)cc1)CC2 [Compound 38] |  | 3.7 | 10.4
14 | COc1ccc(CN2CCc3c(c(C(=O)NCc4cccc5ccccc45)nn3Cc3ccccc3)C2)c2ccccc12 [Compound 17] |  | 2.56 | 10.5
15 | COc1ccc(CN2CCc3c(c(C(=O)NCc4cccc(C)c4)nn3CCO)C2)c2ccccc12 [Compound 62] |  | 4.5 | 38.1
16 | CCCc1ccc(CN2CCc3c(c(C(=O)NCc4cccc5ccccc45)nn3CCO)C2)cc1 [Compound 49] |  | 2.7 | 32.5
17 | COc1ccc(CN2CCc3c(c(C(=O)NCc4cccc5[nH]ccc45)nn3CCO)C2)c2ccccc12 [Compound 60] |  | 5.6 | 20.2
18 | COc1ccc(CN2CCc3c(c(C(=O)NCc4cccc5ccccc45)nn3-c3ccccc3)C2)c2ccccc12 [Compound 37] |  | 3.5 | 7.61
19 | NCCn1nc(C(=O)NCc2cccc3ccccc23)c2c1CCN(Cc1ccc(Cl)cc1)C2 [Compound 103] |  | 0.18 | 10
20 | COc1ccc(CN2CCc3c(c(C(=O)NCc4cc(F)cc5ccccc45)nn3CCO)C2)c2ccccc12 [Compound 107] |  | 2.9 | 28.7
21 | O=C(NCc1cccc2ccccc12)c1nn(CCO)c2c1CN(Cc1ccc(C(F)(F)F)cc1)CC2 [Compound 48] |  | 5.4 | 34
22 | COc1ccc(CN2CCc3nn4c(c3C2)C(=O)N(Cc2cccc3ccccc23)CC4)c2ccccc12 [Compound 91] |  | 6.4 | 19.2
23 | COc1ccc(CN2CCc3c(c(C(=O)NCc4cccc5ccccc45)nn3C3CN(C(=O)C(C)(C)C)C3)C2)c2ccccc12 [Compound 15] |  | 1.47 | 7.92
